Results on 14 molecules are retold here after US10981926B2 (Janssen Pharmaceutica NV, priority 2016, dated 2021).

Type in all cases: cell-based
The target in test [1] is T1, wild-type Androgen Receptor (AR-wt) (Homo sapiens (Human), UniProt P10275). The test is described as follows: LNCaP-AR-wt ANT reporter assay (antagonist mode). The settings on record: for IC50: antagonist mode, pIC50 = −Log10(IC50 in Molar), read-out: LNCaP-AR-wt ANT pIC50 (converted); for Emax: maximum % inhibition of R1881 control response over the tested concentration range, read-out: LNCaP-AR-wt ANT MAX % Inh. (In general: In a reporter assay the amount or activity of a reporter protein is the signal.)

Test [2] deals with T1, wild-type Androgen Receptor (AR-wt). Nature of the test: LNCaP-AR-wt AG reporter assay (agonist mode). The settings on record: for EC50: agonist mode, pEC50 = −Log10(EC50 in Molar), read-out: LNCaP-AR-wt AG pEC50 (converted); for Emax: maximum % stimulation (agonist response) over the tested concentration range, read-out: LNCaP-AR-wt AG MAX % Stim.
The target of test [3] is T2, F876L mutant Androgen Receptor (AR-F876L) (Homo sapiens (Human), UniProt P10275, F877L). The test is described as follows: LNCaP-AR-F876L ANT reporter assay (antagonist mode). The settings on record: for IC50: antagonist mode, pIC50 = −Log10(IC50 in Molar), read-out: LNCaP-AR-F876L ANT pIC50 (converted); for Emax: maximum % inhibition of R1881 control response over the tested concentration range, read-out: LNCaP-AR-F876L ANT MAX % Inh.

Test [4] has as its target T2, F876L mutant Androgen Receptor (AR-F876L). The test is described as follows: LNCaP-AR-F876L AG reporter assay (agonist mode). The settings on record: for EC50: agonist mode, pEC50 = −Log10(EC50 in Molar), read-out: LNCaP-AR-F876L AG pEC50 (converted); for Emax: maximum % stimulation (agonist response) over the tested concentration range, read-out: LNCaP-AR-F876L AG MAX % Stim.

T1 sequence (P10275 whole entry): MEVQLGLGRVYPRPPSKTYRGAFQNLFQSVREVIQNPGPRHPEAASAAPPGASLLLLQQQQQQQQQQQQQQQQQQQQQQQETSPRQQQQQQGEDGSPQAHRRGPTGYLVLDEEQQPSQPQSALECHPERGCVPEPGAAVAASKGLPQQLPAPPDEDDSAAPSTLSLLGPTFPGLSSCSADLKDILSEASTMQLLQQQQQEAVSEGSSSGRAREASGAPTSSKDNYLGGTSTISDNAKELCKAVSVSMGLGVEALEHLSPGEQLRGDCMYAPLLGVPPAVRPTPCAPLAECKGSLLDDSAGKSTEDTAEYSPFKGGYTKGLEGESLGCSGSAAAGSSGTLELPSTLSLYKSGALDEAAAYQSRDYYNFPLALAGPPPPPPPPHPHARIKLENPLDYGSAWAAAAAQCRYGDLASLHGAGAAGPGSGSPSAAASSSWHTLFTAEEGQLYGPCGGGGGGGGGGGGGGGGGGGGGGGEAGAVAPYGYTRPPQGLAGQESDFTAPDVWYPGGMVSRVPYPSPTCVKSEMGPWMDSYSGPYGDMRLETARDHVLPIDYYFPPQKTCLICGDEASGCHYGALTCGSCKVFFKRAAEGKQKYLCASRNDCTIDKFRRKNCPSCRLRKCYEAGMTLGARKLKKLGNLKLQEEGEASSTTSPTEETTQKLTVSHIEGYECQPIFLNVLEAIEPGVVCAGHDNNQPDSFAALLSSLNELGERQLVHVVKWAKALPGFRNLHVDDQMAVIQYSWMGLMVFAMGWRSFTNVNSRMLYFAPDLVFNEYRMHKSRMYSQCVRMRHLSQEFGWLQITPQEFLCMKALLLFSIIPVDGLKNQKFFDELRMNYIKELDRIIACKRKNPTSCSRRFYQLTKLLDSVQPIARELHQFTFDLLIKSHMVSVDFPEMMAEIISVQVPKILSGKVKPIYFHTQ
T2 sequence (P10275 whole entry F877L): as the sequence (P10275 whole entry) above, with F877L counted along it

Regarding `N#Cc1ncc(N2C(=O)C3(CCC3)N(c3ccc4c(cnn4CC4CCNCC4)c3)C2=S)cc1C(F)(F)F` [Cpd 128, 5-(8-Oxo-5-(1-(piperidin-4-ylmethyl)-1H-indazol-5-yl)-6-thioxo-5,7-diazaspiro[3.4]octan-7-yl)-3-(trifluoromethyl)picolinonitrile], the IC50 in test [1] is 1070 nM; in test [3], 468 nM. For the same molecule, the Emax amounted to 101% in test [1], 0.2% in test [2], 101% in test [3] and 0.3% in test [4]. Also, the EC50 in test [2] and in test [4] was over 15100 nM each time.

With `CN1CCC(Cn2ncc3cc(N4C(=S)N(c5cnc(C#N)c(C(F)(F)F)c5)C(=O)C45CCC5)ccc32)CC1` [Cpd 132, 5-(5-(1-((1-methylpiperidin-4-yl)methyl)-1H-indazol-5-yl)-8-oxo-6-thioxo-5,7-diazaspiro[3.4]octan-7-yl)-3-(trifluoromethyl)picolinonitrile], the IC50 in test [1] was 372 nM; in test [3], 148 nM. Also, the Emax in test [1] was 101%; in test [2], 0.5%; in test [3], 98.7%; in test [4] it was 0.9%. Besides, the EC50 in test [2] and in test [4] was over 15100 nM in each case.

On to `N#Cc1ncc(N2C(=O)C3(CCC3)N(C3CCC(NC(=O)c4ccccc4)CC3)C2=S)cc1C(F)(F)F` (stereo not drawn) [Cpd 134, N-[4-[6-[6-cyano-5-(trifluoromethyl)-3-pyridyl]-5-oxo-7-thioxo-6,8-diazaspiro[3.4]octan-8-yl]cyclohexyl]benzamide], for which the IC50 is 759 nM in test [1] and 339 nM in test [3]. The EC50 in test [2] and in test [4] was over 15100 nM in each case.

With `N#Cc1ncc(N2C(=O)C3(CCC3)N(c3ccc(OC4C5CCC4CNC5)nc3)C2=S)cc1C(F)(F)F` (stereo not drawn) [Cpd 139, 5-[8-[6-(3-azabicyclo[3.2.1]octan-8-yloxy)-3-pyridyl]-5-oxo-7-thioxo-6,8-diazaspiro[3.4]octan-6-yl]-3-(trifluoromethyl)pyridine-2-carbonitrile], the results for the IC50 in test [1] and in test [3] were 589 nM and 513 nM, respectively. For the same molecule, the Emax in test [1] turned out to be 102%; in test [2] it was 1.2%; in test [3] it was 99.8%; in test [4], 0.1%. The EC50 in test [2] and in test [4] was over 15100 nM each time.

In the case of `CC1(Oc2ccc(N3C(=S)N(c4cnc(C#N)c(C(F)(F)F)c4)C(=O)C34CCC4)cc2)CCNCC1` [Cpd 140, 5-[8-[4-[(4-methyl-4-piperidyl)oxy]phenyl]-5-oxo-7-thioxo-6,8-diazaspiro[3.4]octan-6-yl]-3-(trifluoromethyl)pyridine-2-carbonitrile], the IC50 in test [1] is 1000 nM; in test [3], 339 nM. For the same molecule, the Emax in test [1] was 99.9%; in test [2], 0.3%; in test [3], 99.5%; in test [4] it was 0%. Moreover, the EC50 in test [2] and in test [4] was over 15100 nM each time.

On to `CN1CC(CCOc2ccc(N3C(=S)N(c4cnc(C#N)c(C(F)(F)F)c4)C(=O)C34CCC4)cc2)C1` [Cpd 142, 5-[8-[4-[2-(1-methylazetidin-3-yl)ethoxy]phenyl]-5-oxo-7-thioxo-6,8-diazaspiro[3.4]octan-6-yl]-3-(trifluoromethyl)pyridine-2-carbonitrile], for which the IC50 in test [1] is 112 nM; in test [3], 117 nM. Moreover, the Emax in test [1] was 101%; in test [2], -0.2%; in test [3], 99%; in test [4], 0.8%. For the same molecule, the EC50 in test [2] and in test [4] was over 15100 nM in each case.

Turning to `CN1CCC(C)(Oc2ccc(N3C(=S)N(c4cnc(C#N)c(C(F)(F)F)c4)C(=O)C34CCC4)cc2)CC1` [Cpd 143, 5-[8-[4-[(1,4-dimethyl-4-piperidyl)oxy]phenyl]-5-oxo-7-thioxo-6,8-diazaspiro[3.4]octan-6-yl]-3-(trifluoromethyl)pyridine-2-carbonitrile], the IC50 is 1350 nM in test [1] and 355 nM in test [3]. For the same molecule, the Emax in test [1] is 103%; in test [2], -0.2%; in test [3], 101%; in test [4] it was 0.4%. Besides, the EC50 in test [2] and in test [4] was over 15100 nM throughout.

For the molecule `N#Cc1ncc(N2C(=O)C3(CCC3)N(c3ccc(OCC4(N)COC4)cc3)C2=S)cc1C(F)(F)F` [Cpd 145, 5-[8-[4-[(3-aminooxetan-3-yl)methoxy]phenyl]-5-oxo-7-thioxo-6,8-diazaspiro[3.4]octan-6-yl]-3-(trifluoromethyl)pyridine-2-carbonitrile], the results for the IC50 in test [1] and in test [3] were 178 nM and 302 nM, respectively. The Emax in test [1] was 101%; in test [2], 0.5%; in test [3], 98.8%; in test [4] it was 1.8%. In addition, the EC50 in test [2] and in test [4] was over 15100 nM in each case.

For `CN1CC2CCC(C1)C2Oc1ccc(N2C(=S)N(c3cnc(C#N)c(C(F)(F)F)c3)C(=O)C23CCC3)cc1` (stereo not drawn) [Cpd 146, 5-[8-[4-[(3-methyl-3-azabicyclo[3.2.1]octan-8-yl)oxy]phenyl]-5-oxo-7-thioxo-6,8-diazaspiro[3.4]octan-6-yl]-3-(trifluoromethyl)pyridine-2-carbonitrile], the IC50 is 100 nM in test [1] and 61.7 nM in test [3]. In addition, the Emax in test [1] is 103%; in test [2] it was 0.1%; in test [3], 101%; in test [4], -0.1%. Besides, the EC50 in test [2] and in test [4] was over 15100 nM each time.

As for `CN1CC2CCC(C1)C2Oc1ccc(N2C(=S)N(c3cnc(C#N)c(C(F)(F)F)c3)C(=O)C23CCC3)cn1` (stereo not drawn) [Cpd 147, 5-[8-[6-[(3-methyl-3-azabicyclo[3.2.1]octan-8-yl)oxy]-3-pyridyl]-5-oxo-7-thioxo-6,8-diazaspiro[3.4]octan-6-yl]-3-(trifluoromethyl)pyridine-2-carbonitrile], the IC50 was 224 nM in test [1] and 209 nM in test [3]. For the same molecule, the Emax in test [1] is 102%; in test [2], -0.1%; in test [3], 101%; in test [4], -0.1%. In addition, the EC50 in test [2] and in test [4] was over 15100 nM each time.

As to `N#Cc1ncc(N2C(=O)C3(CCC3)N(c3ccc(OC4CC5CC4CN5)cc3)C2=S)cc1C(F)(F)F` [Cpd 150, (R,S)-5-[8-[4-(2-azabicyclo[2.2.1]heptan-5-yloxy)phenyl]-5-oxo-7-thioxo-6,8-diazaspiro[3.4]octan-6-yl]-3-(trifluoromethyl)pyridine-2-carbonitrile], the IC50 in test [1] is 490 nM; in test [3], 245 nM. For the same molecule, the Emax in test [1] was 102%; in test [2], 0.4%; in test [3], 103%; in test [4], -0.2%. Also, the EC50 in test [2] and in test [4] was over 15100 nM each time.

`CC(C)(C)OC(=O)N1CCC12CC(Oc1ccc(N3C(=S)N(c4cnc(C#N)c(C(F)(F)F)c4)C(=O)C34CCC4)cn1)C2` (stereo not drawn) [Cpd 153, tert-butyl 6-[[5-[6-[6-cyano-5-(trifluoromethyl)-3-pyridyl]-5-oxo-7-thioxo-6,8-diazaspiro[3.4]octan-8-yl]-2-pyridyl]oxy]-3-azaspiro[3.3]heptane-3-carboxylate]: the IC50 in test [1] is 398 nM; in test [3] it was 339 nM. For the same molecule, the Emax was 101% in test [1], 0.1% in test [2], 100% in test [3] and -0.1% in test [4]. Further, the EC50 in test [2] and in test [4] was over 15100 nM each time.

`N#Cc1ncc(N2C(=O)C3(CCC3)N(c3ccc4[nH]ncc4c3)C2=S)cc1Cl` [Cpd 155, 3-chloro-5-[8-(1H-indazol-5-yl)-5-oxo-7-thioxo-6,8-diazaspiro[3.4]octan-6-yl]pyridine-2-carbonitrile]: the figures for the IC50 in test [1] and in test [3] were 302 nM and 219 nM, respectively. Further, the Emax in test [1] came to 97.4%; in test [2], 1.1%; in test [3], 98%; in test [4] it was 2.6%. For the same molecule, the EC50 in test [2] and in test [4] was over 15100 nM in each case.

For `N#Cc1ncc(N2C(=O)C3(CCC3)N(c3ccc(OC4CCN5CCCC5C4)cc3)C2=S)cc1C(F)(F)F` (stereo not drawn) [Cpd 156, 5-[8-[4-(1,2,3,5,6,7,8,8a-octahydroindolizin-7-yloxy)phenyl]-5-oxo-7-thioxo-6,8-diazaspiro[3.4]octan-6-yl]-3-(trifluoromethyl)pyridine-2-carbonitrile], the IC50 was 282 nM in test [1] and 178 nM in test [3]. Further, the Emax came out at 100% in test [1], 1% in test [2], 101% in test [3] and 0.9% in test [4]. The EC50 in test [2] and in test [4] was over 15100 nM throughout.
